The source of these data is US10626145B2, “Peptide with anti-obesity and anti-diabetes activity and use thereof” (CAREGEN CO., LTD., priority 2015, dated 2020).

For one experiment, the system named is aP2. The experiment is described as follows: RT-PCR expression of adipogenic marker aP2 in 3T3-L1. The format is cell-based, mouse. The following applies: for expression level of adipogenic marker aP2 (individual peptides): 3T3-L1, incubated for three days. As to the method: (§1) 3T3-L1 cells (pre-adipocytes) were seeded at a density of 3×10^5 cells/well into 6-well plates. […] Thereafter, the cells were harvested and treated with an RNA extraction solution (Easy Blue, Intron) to prepare RNA from which cDNA was then synthesized using an RT premix (Intron). PCR was performed using primers for […] markers (PPARγ, ACC, and aP2), and a PCR premix (Intron).
(§2) Target-specific primer sequences for PCR of adipogenic markers were as follows: PPARγ forward primer sequence, 5′-[…]-3′ and PPARγ reverse primer, 5′-[…]-3′ (annealing temperature, 60° C.); ACC forward primer sequence, 5′-[…]-3′ and ACC reverse primer, 5′-[…]-3′ (annealing temperature, 60° C.); aP2 forward primer sequence, 5′-[…]-3′ and aP2 reverse primer, 5′-[…]-3′ (annealing temperature, 60° C.)
(§3) PCR products were each loaded in a volume of 5 μl into a 1% agarose gel, and electrophoresed, followed by identifying bands in a Gel-Doc.

Experiment [1] deals with 3T3-L1 cells (pre-adipocytes). The experiment is described as follows: Suppression of lipid accumulation in pre-adipocytes (Oil Red O staining). The format is cell-based, mouse. To be noted: 3T3-L1, various concentrations, differentiation induced for 10 days. As to the method:
The pre-adipocytes 3T3-L1 cells were grown to confluence and then incubated for two days with various concentrations of the peptides in a differentiation medium containing 10 μg/ml insulin, 0.1 μM dexamethasone, and 0.5 μM IBMX. The medium was exchanged every two days with a medium containing 10 μg/ml insulin. After differentiation was induced for 10 days, the generation of droplet in the cells was examined by Oil Red O staining. The prepared 3T3-L1 adipocytes were washed with PBS, fixed with 3.7% formalin for one hour, and washed with 60% isopropanol. The resulting cells were dyed with Oil Red O reagent at room temperature for 20 min. After removal of the Oil Red O reagent, the cells were washed three times with distilled water, and observed under a phase-contrast microscope. For quantitative analysis, fats were extracted from the cells using 100% isopropanol, and the cells were transferred in an amount of 200 μl/well into 96-well plates and measured for optical density at 500 nm using an ELISA reader.

Experiment [2] deals with DB/DB diabetes-induced mice. The experiment is described as follows: Blood sugar over time in DB/DB diabetes-induced mice given individual peptides. The format is in vivo, mouse. The following applies: starved 16 hours, fed 30 min, then peptide administered. As to the method:
In addition, after starvation for 16 hours, DB/DB diabetes-induced mice were fed for 30 min and then administered with the peptides. Blood sugar levels were measured over times.

The test system of a further experiment is insulin. The experiment is described as follows: Western blotting of insulin expression in 3T3-L1. The format is cell-based, mouse. To be noted: 3T3-L1, 10 ng-1 μg/ml, 14 days; dose-dependent. As to the method: (§4) 3T3-L1 cells (pre-adipocytes) were seeded at a density of 3×10^5 cells/well into 6-well plates and grown for 24 hours. Subsequently, the cells were incubated with various concentrations (10 ng-1 μg/ml) of the peptides for 14 days in a 37° C. incubator. Proteins were extracted from cell lysates which were obtained by treatment with cell lysis buffer, quantitatively analyzed, and subjected to Western blotting using an anti-IGF-1 antibody, which is an antibody against the lipolytic marker, and an insulin antibody (Santa Cruz Biotechnology, USA).

Another experiment concerns IGF-1. In words: Western blotting of IGF-1 expression in 3T3-L1. The format is cell-based, mouse. To be noted: 3T3-L1, 10 ng-1 μg/ml, 14 days; dose-dependent. On the procedure: as §4
A general note: Immunoblotting shows a protein as a band on a membrane.

Experiment [3] relates to DIO (diets induced obesity) models. In words: Weight loss and adipogenesis suppression in high-fat diet-fed animal (DIO), 12 weeks. The format is in vivo, mouse. The following applies: for Weight: intraperitoneal injection; for Weight (%): relative to initial weight. On the procedure:
Models DIO (diets induced obesity), which had become obese by feeding high-fat diets thereto, were used for anti-obesity experiments in which TNFα 5 μg/ml was used as a positive control. For a control, a general diet, not a high-fat diet, was fed. In the experiment, a high-fat diet was fed for 12 weeks while the peptide complex or the positive control was applied. During the experiment, the weight was monitored. TNFα and the anti-obesity compounds were intraperitoneally injected at PM 3-4 o'clock every week for 12 weeks. Weights and meal sizes were measured just before the initial injection and then regularly at intervals of one week. Blood samples were taken from tail veins after the experiments of drug injection and measured for blood sugar levels, using Accu-Check Active (Roche) and analyzed for cholesterol levels, using Cholesterol calculation Kit (BioVision). Adipose tissues are divided into white fat and brown fat by color and into subcutaneous fat, abdominal fat, mesentery fat (visceral fat), and epididymal fat by tissue. After lipoectomy, the fats thus obtained from the tissues were observed. For histological examination, the fats were fixed with 10% neutral buffered formalin, embedded in paraffin blocks, cut into 5 μm-thick sections, and dyed with hematoxylin and eosin. To analyze the phosphorylation of the lipolytic marker HSL, fluorescent staining was carried out with an anti-pHSL antibody. A tissue sample was made, mounted on glycerine jell mounting media, and covered with a cover glass. The tissues were observed under a microscope (Nikon, TS100), with a built-in digital camera taking images thereof.

For another experiment, the system named is PPARγ. In words: RT-PCR expression of adipogenic marker PPARγ in 3T3-L1. The format is cell-based, mouse. The following applies: 3T3-L1, three days; complex 0.1, 1, 10 μg/ml; TNFα 100 ng/ml. On the procedure: as §1, §2, §3
The next experiment concerns ACC. In words: RT-PCR expression of adipogenic marker ACC in 3T3-L1. To be noted: 3T3-L1, three days; complex 0.1, 1, 10 μg/ml; TNFα 100 ng/ml. The format is cell-based, mouse. On the procedure:
as §1, §2, §3

ASYLPHPWFS (Peptide 5) [SEQ ID NO: 5]: the “expression level of adipogenic marker aP2 (individual peptides)” value (“expression level” below) with aP2 is listed as “decreased”. Moreover, the “extent of fat (lipid) accumulation in cells, Oil red O staining” value (from here on “extent of fat (lipid) accumulation”) in experiment [1] is given as “decreased”. The “blood sugar levels over time” value in experiment [2] is reported as “decrease in a time-dependent manner”.

In the case of KGASTGWMA (Peptide 3) [SEQ ID NO: 3], the “expression level” value in the experiment with aP2 was “decreased”. For the same substance, the “extent of fat (lipid) accumulation” value in experiment [1] is “decreased”. The “blood sugar levels over time” value in experiment [2] is on record as “decrease in a time-dependent manner”.

With “NH2-Leu-Lys-Thr-Arg-Asn-COOH (H-LKTRN-OH) [SEQ ID NO: 1]”, the “expression level” value in the experiment on aP2 was “decreased”. Further, in experiment [1], the “extent of fat (lipid) accumulation” value is “decreased”. In addition, the “blood sugar levels over time” value in experiment [2] is recorded as “decrease in a time-dependent manner”.

For SDLRRLEMYS (Peptide 7) [SEQ ID NO: 7], the expression of insulin entry with insulin is “increased”. Also, the “expression of IGF-1” value in the experiment on IGF-1 was “increased”.

In the case of TNFα, in the experiment on aP2 (3T3-L1, three days, complex 0.1, 1, 10 μg/ml, TNFα 100 ng/ml), the “expression of adipogenic marker aP2” value is recorded as “decrease”. Also, the “Weight” value in experiment [3] (0 w) is given as 22.41 g; in experiment [3] (1 w), 23 g; in experiment [3] (2 w) it was 26.12 g; in experiment [3] (3 w) it was 27.45 g; in experiment [3] (4 w) it was 30.51 g; in experiment [3] (5 w), 32.76 g. Besides, the “Weight” value in experiment [3] (6 w) amounted to 33.49 g; in experiment [3] (7 w), 35.14 g; in experiment [3] (8 w) it was 37.15 g; in experiment [3] (9 w), 38.97 g; in experiment [3] (10 w), 40.39 g; in experiment [3] (11 w), 41.35 g. In addition, the “Weight” value in experiment [3] (12 w) stood at 43.91 g. For the same substance, the “Weight (%)” value came to 100% in experiment [3] (0 w); 102.6% in experiment [3] (1 w); 116.6% in experiment [3] (2 w); 122.5% in experiment [3] (3 w); 136.1% in experiment [3] (4 w); 146.2% in experiment [3] (5 w). For the same substance, the “Weight (%)” value in experiment [3] (6 w) is on record as 149.4%; in experiment [3] (7 w), 156.8%; in experiment [3] (8 w), 165.8%; in experiment [3] (9 w), 173.9%; in experiment [3] (10 w), 180.2%; in experiment [3] (11 w) it was 184.5%. The “Weight (%)” value in experiment [3] (12 w) stood at 195.9%. Further, in the experiment on PPARγ, the “expression of adipogenic marker PPARγ” value is “decrease”. Also, the “expression of adipogenic marker ACC” value in the experiment with ACC is on record as “decrease”.
